# Measured values taken from ChEMBL document CHEMBL4261492, “Synthesis and in vitro study of novel borneol derivatives as potent inhibitors of the influenza A virus” (Medchemcomm, 2017).
# Tests used:
# MDCK = test: (§1) Cytotoxicity against MDCK cells after 48 hrs by MTT assay; type: cell-based, Canis lupus familiaris; settings: dog, mdck, 48 h
# Influenza A virus [1] = test: microbe, parasite or virus in culture; settings: A/Puerto Rico/8/1934(H1N1), MDCK
# [2] = as §1; type: cell-based, Canis lupus familiaris; settings: dog, MDCK cells
# in vitro = settings: dog, MDCK cells, Ratio CC50/EC50
# Influenza A virus [3] = settings: mdck
SMILES,CC50 (MDCK) [µM],IC50 (Influenza A virus [1]) [µM],CC50 at 48 h [2] [µM],selectivity ratio (in vitro),IC50 (Influenza A virus [3]) [µM]
CCOC(=O)CN1CCOCC1,> 1730,983,,,
CC1(C)[C@H]2CC[C@]1(C)[C@H](OC(=O)CN1CCNCC1)C2,,3.2,51.6,16,
CC1(C)[C@H]2CC[C@]1(C)[C@H](OC(=O)CCN1CCOCC1)C2,552,12.2,,45,
CN1CCN(CCC(=O)O[C@@H]2C[C@@H]3CC[C@@]2(C)C3(C)C)CC1,48.1,1.9,,25,
CC1(C)[C@H]2CC[C@]1(C)[C@H](OC(=O)CN1CCOCC1)C2,580,7.1,,82,
CC1(C)[C@H]2CC[C@]1(C)[C@H](OC(=O)CCN1CCCCC1)C2,69.6,7.8,,,
CC1(C)[C@H]2CC[C@]1(C)[C@H](OC(=O)CCN1CCNCC1)C2,12.6,6.8,,2,
CCN1CCN(CCC(=O)O[C@@H]2C[C@@H]3CC[C@@]2(C)C3(C)C)CC1,105,8.4,,12,
CN1CCN(CC(=O)O[C@@H]2C[C@@H]3CC[C@@]2(C)C3(C)C)CC1,,7.1,103,14,
CCCCN(CCCC)CC(=O)O[C@@H]1C[C@@H]2CC[C@@]1(C)C2(C)C,69.3,> 34.1,,,
CC1(C)[C@H]2CC[C@]1(C)[C@@H](OC(=O)CCN1CCOCC1)C2,508,7.8,,65,
CC1CCN(CC(=O)O[C@@H]2C[C@@H]3CC[C@@]2(C)C3(C)C)CC1,93.9,10.2,,9,
CCCCN(CCCC)CCC(=O)O[C@@H]1C[C@@H]2CC[C@@]1(C)C2(C)C,41.8,7.1,,6,
CC1(C)[C@H]2CC[C@]1(C)[C@H](OC(=O)CCN1CCCC1)C2,125,14.3,,9,
CC1(C)[C@H]2CC[C@]1(C)[C@H](OC(=O)CN1CCCC1)C2,302,34,,9,
CC1(C)[C@H]2CC[C@]1(C)[C@@H](OC(=O)CN1CCOCC1)C2,> 534,73.7,,,
CCN1CCN(CC(=O)O[C@@H]2C[C@@H]3CC[C@@]2(C)C3(C)C)CC1,,4.4,100,23,
CCOC(=O)N1CCN(CC(=O)O[C@@H]2C[C@@H]3CC[C@@]2(C)C3(C)C)CC1,> 852,683,,1,
COC(=O)CN1CCOCC1,> 1890,> 1890,,,
CC1CCN(CCC(=O)O[C@@H]2C[C@@H]3CC[C@@]2(C)C3(C)C)CC1,56.4,15.3,,4,
CC1(C)[C@H]2CC[C@]1(C)[C@H](OC(=O)CN1CCCCC1)C2,138,15.1,,9,
CCOC(=O)N1CCN(CCC(=O)O[C@@H]2C[C@@H]3CC[C@@]2(C)C3(C)C)CC1,150,> 98.4,,2,
CC1(C)[C@H]2CC[C@]1(C)[C@@H](O)C2 (stereo in doubt; 1),> 2140,,,,
CC1(C)[C@H]2CC[C@]1(C)[C@@H](O)C2 (stereo in doubt; 22),> 974,,,,> 974
NC12CC3CC(CC(C3)C1)C2 [AMANTADINE],,64.2,,4,
CCOC(=O)C1=C[C@@H](OC(CC)CC)[C@H](NC(C)=O)[C@@H](N)C1 [OSELTAMIVIR],160,,,,
NC(=O)c1ncn([C@@H]2O[C@H](CO)[C@@H](O)[C@H]2O)n1 [RIBAVIRIN],> 2000,24.6,,> 81,
CC(N)C12CC3CC(CC(C3)C1)C2 (configuration not stated) [RIMANTADINE],,67,,5,
